From patent US7648966B2, “Mannose-6-phosphonate compounds for the treatment of inflammatory diseases” (Pharmaxis Pty Limited, priority 2003, dated 2010)

Tests used:
[1] = test system: MBP-specific T lymphocyte cell lines migrating across rat brain endothelial cell monolayer; assay: Inhibition of T-lymphocyte migration across rat brain endothelial cell layer (Transwell, 51Cr-labeled cells); assay type: cell-based, Lewis rats; conditions: 6 hours
Description: Preparation of Brain Endothelial Cells (ECs)
Vascular ECs were isolated from rat brain capillaries of 6 to 8 week old Lewis rats according to the method of Risau, W et al., 1990, J. Cell Biol. 110:1757-1766 (which is incorporated herein by reference). Colonies of ECs were purified from astroglial cells and pericytes using anti-Thy1.1-antibody and complement-mediated lysis to remove unwanted Thy1.1+ cells.
The EC colonies were grown, using conventional methods, in Dulbecco's Modified Eagle's Medium (DMEM)-high glucose, supplemented, with 20% fetal calf serum (FCS), glutamine, pyruvate, nonessential amino acids, HEPES buffer and antibiotics (kanamycin, amphotericin), and heparin (all from GIBCO). Cultures were supplemented with 150 μg/ml “endothelial growth supplement” from Collaborative Biomedical Products. Upon reaching confluence, EC cultures were washed with 0.2% EDTA in phosphate buffered saline (PBS), trypsinized (Trypsin-EDTA, 0.1% final concentration), washed and re-treated with anti-Thy1.1 antibody for 40 min, washed and incubated with complement sufficient to lyse all Thy1.1+ cells (Behringwerke, AG, Marburg, Germany) at room temperature.
ECs were then plated on Matrigel®-coated 6.5 mm Transwells, […] (Corning Costar Corporation, Cambridge, Mass.). Presence of ECs and confluence of the monolayer were checked by measuring the electrical resistance (World Precision Instruments, New Haven, U.S.A., model EVOM-G) and by staining with FITC-labeled phalloidin (Sigma).
Myelin Basic Protein (MBP)-Specific T Cell Lines
To study the effect of agents of the present invention on T lymphocyte migration, MBP-specific T lymphocyte cell lines were generated according to the method of Ben-Nun et al., Europ. J. Immunol. 11:195-199 (1981); incorporated herein by reference) starting with lymphocytes from the LNs of Lewis rats that had been immunized with MBP in complete Freund's adjuvant (CFA). These cells were used for migration studies during the first 4 days of their propagation in IL-2-containing medium, following MBP restimulation in the presence of antigen-presenting cells (irradiated spleen or thymus cells from normal Lewis rats).
These stimulated T lymphocytes were radiolabeled with ^51Cr (Na^51Cr04, 37 MBq/ml, Amersham, UK) for 30 minutes at 37° C. with occasional agitation, they were then washed three times with DMEM and placed into the upper chamber of the Transwells at 5×10^5 cells in 100 μl of “migration medium.” Test and control substance were included in the upper wells at final concentrations of 0.1, 1 and 10 mM. Cell migration was assessed visually by light microscopy to gauge progress of the experiment. The experiment was terminated after 6 hours, whereupon the undersurface of the membrane filters were rinsed twice with 100 μl of ice-cold PBS-0.2% EDTA and combined with the medium of the lower chamber of the well. The combined material was counted for radioactivity in a gamma counter (Packard Auto-Gamma 5650 (Downer's Grove Ill., USA) gamma counter. Each “treatment” group was run in triplicate (test agent, control agent (glucose 6-phosphate) and no treatment).
Inhibition values are in comparison with the negative control.

[2] = test system: 51Cr-labeled T lymphocyte migration into the spleen; assay: Inhibition of lymphocyte migration into lymphoid tissue (spleen) in vivo; parameters: species or system Balb/c mice; conditions: 5 mg per mouse iv with labeled cells; spleens removed 1.5 hours after injection; vs negative controls
Description: Lymphocytes were obtained from spleens of 6-8 week old female specific pathogen-free Balb/c mice (19-21 g). Single cell suspensions prepared by conventional means (pushing through a stainless steel screen). Red blood cells were lysed by treating with a solution of bicarbonate buffered ammonium chloride-EDTA (pH 7.3) and the preparation strained through a Falcon 2350 cell strainer. All cell preparative steps were performed on ice. Cell were suspended in a conventional lymphocyte culture medium (DMEM plus glucose, folic acid, L-asparagine, sodium bicarbonate, L-glutamine, sodium pyruvate, HEPES, 2-mercaptoethanol, penicillin, streptomycin, neomycin, and 2% FCS).
B lymphocytes were depleted by suspending the cells in purified rat anti-mouse CD45/B220 antibody (RA3-6B2 clone; PharMingen, USA) at a concentration of 4×10^7 cells/ml and incubated on ice for 20 minutes. An equal volume of culture medium (as above) was added and the cells centrifuged (200×g) and resuspended at a concentration of 10^7 cells/ml in BioMag goat ant-rat IgG (H&L) (“GARIG”) conjugated to magnetic beads (Bio Mag; Perseptive Diagnostics, Polysciences, Inc., USA). Following a 20 minute incubation on ice, with agitation every 5 minutes, cells binding to the GARIG/anti-CD45/B220 antibody complex were removed using magnetic separation (Dynal MPC-6, Dynal, USA). This procedure was repeated 4 times, resulting in a cell population containing approximately 80-90% T lymphocytes (determined by FACS analysis).
The cells were then washed in Hanks balanced salt solution (HBSS), resuspended in 5 ml of HBSS, and radiolabeled with ^51Cr for 30 minutes at 37° C. (as described above). The labeled cells were washed in PBS, centrifuged (200×g), and a portion were resuspended at a concentration of 3×10^7 cells/ml in either PBS (negative control) or PBS containing phenyl mannoside 6-phosphate (25 mg/ml in PBS; positive control) or PBS containing the test compound (25 mg/ml), and stored on ice. Cell viability was confirmed throughout the procedures by trypan blue exclusion. Balb/c mice were injected intravenously (iv) into the lateral tail vein with 0.2 ml containing 6×10^6 labeled lymphocytes and 0.2 ml of either PBS (negative control), 5 mg positive control or 5 mg test compound. All groups of mice were weight matched (±0.5 g).
Spleens from recipient mice were removed 1.5 hours after injection, and the cell-associated radioactivity was determined using a gamma counter (as above). Results of inhibition of lymphocyte migration into the spleen were expressed as a percentage reduction in the CPM of the spleens from treated animals compared with negative controls.
The phosphono-mannoside compounds of the present invention and their relative inhibition of lymphocyte migration in vivo (compared to negative controls) are presented in Table 2.

[3] = Tested for pharmaceutical effectiveness (test not specified)
Description: In a similar manner to the foregoing procedure and using the appropriate reagents, the following compounds were prepared.

[4] = 10 mM in upper well, compared with negative control

Question: With “1-(2,4,6-trimethylphenyl)-6-phosphono-manoside” as the compound, how does the “% inhibition (±SEM) of T cell migration” value [1, 4] read?
Answer: 80 ± 4%

Question: And the “% Inhibition of lymphocyte migration into spleens” value [2]?
Answer: 85.5%

Question: Which results are given for “1-(2-methyl,4-chlorophenyl)-6-phosphono-mannoside”?
Answer: % inhibition (±SEM) of T cell migration [1, 4]: 65 ± 4%; % Inhibition of lymphocyte migration into spleens [2]: 45.0%

Question: Which results are given for “1-(2-methyl,4-fluorophenyl)-6-phosphonomannoside”?
Answer: % inhibition (±SEM) of T cell migration [1, 4]: 53 ± 2%; % Inhibition of lymphocyte migration into spleens [2]: 68.0%

Question: What does the source list for “1-(2-methyl,4-trifluoromethyl)-6-phosphonomannoside”?
Answer: % inhibition (±SEM) of T cell migration [1, 4]: 88 ± 3%; % Inhibition of lymphocyte migration into spleens [2]: 87.3%; pharmaceutical effectiveness as defined herein [3]: pharmaceutically effective

Question: Which inhibition at 10000 µM ([1]; Rattus norvegicus, T-cell, 10 mM in upper well, compared with negative control, read-out: % inhibition (±SEM) of T cell migration) does the source give for `O=C[C@H](O)[C@@H](O)[C@H](O)[C@H](O)COP(=O)(O)O` [glucose-6-phosphate, reference compound] here?
Answer: 0%

Question: And the “migration value compared with no treatment” value ([1]; control agent)?
Answer: not statistically different from no treatment

Question: For `O=P(O)(O)OC[C@H]1OC(Oc2ccccc2)[C@@H](O)[C@@H](O)[C@@H]1O` (stereo partly drawn) [positive control compound, phenyl mannoside 6-phosphate, reference compound], which “% Inhibition of lymphocyte migration into spleens” value [2] is on record?
Answer: 70.5%
